Experimental data from patent US6248367A, “Bovine excretion extracts having anticancer and anti-inflammatory activity and process for preparing the same” (Kim; Bok Deuk, priority 1998, dated 2001).

Assay: in vitro
Details: rat, erythrocytes
Description: Cytotoxicity of the bovine excretion extracts according to the present invention was tested by measuring degree of hemolysis of erythrocytes. To erytlirocytes isolated from rats, the extracts prepared in example 1 were added and then, the mixture was cultivated at a temperature of 37° C. for 30, 60 and 120 minutes, respectively. After centrifugation, 400 μl of medium was taken and then reagent for detection of hemolysis was added thereto. Then, absorbance was read at 540 nm to determine degree of hemolysis. Degree of hemolysis (%) is calculated as follows: [formula]
Erythrocytes treated with menadione (positive control) were measured on degree of hemolysis, for the purpose of comparison with the bovine excretion extracts prepared in example 1. Menadione is a known compound which induce hemolysis of erythrocytes.

CC1=CC(=O)c2ccccc2C1=O [menadione, Menadione]
hemolysis at 0 h: 0%
hemolysis at 0.5 h: 1.6 ± 1.3%
hemolysis at 1 h: 2.3 ± 0.4%
hemolysis at 2 h: 65.3 ± 4.8%
